Like-named read-outs stand apart in the source and are kept apart here.
Legend:
Assay type in all cases: cell-based
Pseudomonas aeruginosa = assay: MIC by agar dilution against 61 strains of Pseudomonas aeruginosa, secondary evaluation; conditions: Pseudomonas aeruginosa
Outline: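 Serial two-fold agar dilution on Mueller-Hinton agar plates, inoculated with a Steers' replicator. Primary screening covered 31 test organisms; secondary evaluation used 61 Pseudomonas aeruginosa strains. MIC taken as the lowest inhibitory concentration.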

P. morganii = assay: MIC by serial two-fold agar dilution (Mueller-Hinton agar), P. morganii
Outline: (§1)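 Compounds were diluted two-fold serially into Mueller-Hinton agar, then organisms were applied using Steers' apparatus and MICs read. The primary panel comprised 31 test organisms, and the secondary evaluation 61 strains of P. aeruginosa.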

P. mirabilis = assay: MIC by serial two-fold agar dilution (Mueller-Hinton agar), P. mirabilis
Outline: as §1

P. vulgaris = assay: MIC by serial two-fold agar dilution (Mueller-Hinton agar), P. vulgaris
Outline: as §1

Measured: MIC

CC1(C)S[C@@H]2[C@H](NC(=O)C(c3ccccc3)S(=O)(=O)O)C(=O)N2[C@H]1C(=O)O (stereo partly drawn) [Sulbenicillin, sulbenicillin]
12.5 µg/mL: Pseudomonas aeruginosa; GN315
3.1 µg/mL: Pseudomonas aeruginosa; BBRI Pa-No. 31, Table 7, read-out: MIC | P. vulgaris; P. vulgaris A9539, Table 6 | P. vulgaris; Proteus vulgaris, P. vulgaris, Table 1, read-out: MIC
> 100 µg/mL: Pseudomonas aeruginosa; BBRI Pa-No. 24, Table 7, read-out: MIC | Pseudomonas aeruginosa; BBRI Pa-No. 42, Table 2, read-out: MIC | Pseudomonas aeruginosa; BBRI Pa-No. 42, Table 7, read-out: MIC | Pseudomonas aeruginosa; BBRI Pa-No. 62, Table 2, read-out: MIC | Pseudomonas aeruginosa; BBRI Pa-No. 62, Table 7, read-out: MIC | P. morganii; Morganella morganii, P. morganii, Table 1, read-out: MIC | P. morganii; P. morganii A9553, Table 6
1.6 µg/mL: Pseudomonas aeruginosa; BBRI Pa-No. 36, Table 2, read-out: MIC
50 µg/mL: Pseudomonas aeruginosa; BBRI Pa-No. 23, Table 2, read-out: MIC | Pseudomonas aeruginosa; BBRI Pa-No. 28, CPH1C527/72, Table 7, read-out: MIC | Pseudomonas aeruginosa; BBRI Pa-No. 28, CPH10527/72, Table 2, read-out: MIC | Pseudomonas aeruginosa; BBRI Pa-No. 35, Table 7, read-out: MIC | Pseudomonas aeruginosa; BBRI Pa-No. 37, Table 2, read-out: MIC | Pseudomonas aeruginosa; BBRI Pa-No. 38, Table 2, read-out: MIC | Pseudomonas aeruginosa; BBRI Pa-No. 43, Table 2, read-out: MIC | Pseudomonas aeruginosa; BBRI Pa-No. 44 (unnamed strain), Table 7, read-out: MIC | Pseudomonas aeruginosa; BBRI Pa-No. 44, Table 2, read-out: MIC | Pseudomonas aeruginosa; BBRI Pa-No. 52, Table 7, read-out: MIC | Pseudomonas aeruginosa; BBRI Pa-No. 54, Table 2, read-out: MIC | Pseudomonas aeruginosa; BBRI Pa-No. 58, Table 2, read-out: MIC | Pseudomonas aeruginosa; BBRI Pa-No. 58, Table 7, read-out: MIC | Pseudomonas aeruginosa; BBRI Pa-No. 59, Table 2, read-out: MIC | Pseudomonas aeruginosa; BBRI Pa-No. 61, Table 2, read-out: MIC | Pseudomonas aeruginosa; BBRI Pa-No. 67, Table 2, read-out: MIC | Pseudomonas aeruginosa; BBRI Pa-No. 68, Table 2, read-out: MIC | Pseudomonas aeruginosa; BBRI Pa-No. 68, Table 7, read-out: MIC | Pseudomonas aeruginosa; BBRI Pa-No. 69, Table 2, read-out: MIC | Pseudomonas aeruginosa; BBRI Pa-No. 70, K-Ps102(CR-102), Table 7, read-out: MIC | Pseudomonas aeruginosa; GN315, BBRI Pa-No. 27, GN315, Table 2, read-out: MIC | Pseudomonas aeruginosa; GN4925, BBRI Pa-No. 44, GN4925, Table 7, read-out: MIC | Pseudomonas aeruginosa; GN4925, BBRI Pa-No. 45, GN4925, Table 2, read-out: MIC
6.3 µg/mL: Pseudomonas aeruginosa; BBRI Pa-No. 25, Table 7, read-out: MIC
25 µg/mL: Pseudomonas aeruginosa; BBRI Pa-No. 23, Table 7, read-out: MIC | Pseudomonas aeruginosa; BBRI Pa-No. 29, D122, Table 2, read-out: MIC | Pseudomonas aeruginosa; BBRI Pa-No. 29, D122, Table 7, read-out: MIC | Pseudomonas aeruginosa; BBRI Pa-No. 30, Table 2, read-out: MIC | Pseudomonas aeruginosa; BBRI Pa-No. 30, Table 7, read-out: MIC | Pseudomonas aeruginosa; BBRI Pa-No. 32, Table 2, read-out: MIC | Pseudomonas aeruginosa; BBRI Pa-No. 32, Table 7, read-out: MIC | Pseudomonas aeruginosa; BBRI Pa-No. 33, Table 7, read-out: MIC | Pseudomonas aeruginosa; BBRI Pa-No. 34, Table 2, read-out: MIC | Pseudomonas aeruginosa; BBRI Pa-No. 37, Table 7, read-out: MIC | Pseudomonas aeruginosa; BBRI Pa-No. 39, Table 2, read-out: MIC | Pseudomonas aeruginosa; BBRI Pa-No. 39, Table 7, read-out: MIC | Pseudomonas aeruginosa; BBRI Pa-No. 41, Table 2, read-out: MIC | Pseudomonas aeruginosa; BBRI Pa-No. 41, Table 7, read-out: MIC | Pseudomonas aeruginosa; BBRI Pa-No. 43, Table 7, read-out: MIC | Pseudomonas aeruginosa; BBRI Pa-No. 51, Table 2, read-out: MIC | Pseudomonas aeruginosa; BBRI Pa-No. 51, Table 7, read-out: MIC | Pseudomonas aeruginosa; BBRI Pa-No. 52, Table 2, read-out: MIC | Pseudomonas aeruginosa; BBRI Pa-No. 53, Table 2, read-out: MIC | Pseudomonas aeruginosa; BBRI Pa-No. 53, Table 7, read-out: MIC | Pseudomonas aeruginosa; BBRI Pa-No. 54, Table 7, read-out: MIC | Pseudomonas aeruginosa; BBRI Pa-No. 55, Table 2, read-out: MIC | Pseudomonas aeruginosa; BBRI Pa-No. 55, Table 7, read-out: MIC | Pseudomonas aeruginosa; BBRI Pa-No. 56, Table 2, read-out: MIC | Pseudomonas aeruginosa; BBRI Pa-No. 56, Table 7, read-out: MIC | Pseudomonas aeruginosa; BBRI Pa-No. 57, Table 2, read-out: MIC | Pseudomonas aeruginosa; BBRI Pa-No. 57, Table 7, read-out: MIC | Pseudomonas aeruginosa; BBRI Pa-No. 59, Table 7, read-out: MIC | Pseudomonas aeruginosa; BBRI Pa-No. 61, Table 7, read-out: MIC | Pseudomonas aeruginosa; BBRI Pa-No. 64, Table 2, read-out: MIC | Pseudomonas aeruginosa; BBRI Pa-No. 64, Table 7, read-out: MIC | Pseudomonas aeruginosa; BBRI Pa-No. 65, Table 2, read-out: MIC | Pseudomonas aeruginosa; BBRI Pa-No. 65, Table 7, read-out: MIC | Pseudomonas aeruginosa; BBRI Pa-No. 66, Table 2, read-out: MIC | Pseudomonas aeruginosa; BBRI Pa-No. 66, Table 7, read-out: MIC | Pseudomonas aeruginosa; BBRI Pa-No. 67, Table 7, read-out: MIC | Pseudomonas aeruginosa; BBRI Pa-No. 70, K-Ps102 (CR-102), Table 2, read-out: MIC
0.8 µg/mL: Pseudomonas aeruginosa; BBRI Pa-No. 36, Table 7, read-out: MIC | P. mirabilis; P. mirabilis A9900, Table 6 | P. mirabilis; Proteus mirabilis, P. mirabilis, Table 1, read-out: MIC
100 µg/mL: Pseudomonas aeruginosa; BBRI Pa-No. 24, Table 2, read-out: MIC | Pseudomonas aeruginosa; BBRI Pa-No. 33, Table 2, read-out: MIC | Pseudomonas aeruginosa; BBRI Pa-No. 35, Table 2, read-out: MIC | Pseudomonas aeruginosa; BBRI Pa-No. 38, Table 7, read-out: MIC | Pseudomonas aeruginosa; BBRI Pa-No. 69, Table 7, read-out: MIC

From patent US4138554A, “7-[D-α-(4-Hydroxy-1,5-naphthyridine-3-carboxamido)-α-phenyl (and p-hydroxyphenyl)acetamido]-3-carbamoyloxymethyl-3-cephem-4-carboxylic acids” (priority 1977, dated 1979)
